Patent US10421761B2, “Compounds for kinase modulation, and indications therefor” (Plexxikon Inc., priority 2013, dated 2019)

Tests used:
[1] = tested on: A375 (BRAF V600E) cell line; experiment: A375 P-ERK inhibition assay (AlphaScreen); assay type: cell-based, human; settings: Homo sapiens, A-375; A375_P-ERK
Description: (§1) Phospho-ERK AlphaScreen® assay. To determine the effects of compound treatment upon phosphorylation of ERK1/2, cells were plated in a 96-well dish and treated with an 8-point titration of compound for one hour at 37° C. before lysis. To detect pERK, cell lysates were incubated with streptavidin-coated AlphaScreen® donor beads, anti-mouse IgG AlphaScreen® acceptor beads, a biotinylated anti-ERK1/2 rabbit antibody, and a mouse antibody that recognizes ERK1/2 only when it is phosphorylated on Thr202 and Tyr204. The biotinylated ERK1/2 antibody binds to both the streptavidin-coated AlphaScreen® donor beads and to ERK1/2 (regardless of its phosphorylation state), and the phospho-ERK1/2 antibody binds to the acceptor beads and to ERK1/2 that is phosphorylated at Thr202/Tyr204. An increase in ERK1/2 phosphorylation at Thr202/Tyr204 brings the donor and acceptor AlphaScreen® beads into close proximity, generating a signal that can be quantified on an EnVision reader (Perkin Elmer).

[2] = tested on: B9 (HRAS Q61L) cell line; experiment: B9 P-ERK cell activation assay (AlphaScreen); assay type: cell-based, mouse; settings: Mus musculus; P-ERK cell activation, B9; numeric bounds; read-out: Cell activity (EC50 μM) B9_pERK
Description: (§2) B9 is a squamous cell carcinoma cell line expressing activated HRAS that was isolated from a DMBA/TPA-induced mouse model of skin carcinogenesis (Stoler, et al. The Journal of Cell Biology, 1993, 122(5), 1103-17). IPC-298 is a human melanoma cell line that expresses activated NRAS (Aubert, et al. International Journal of Cancer, 1993, 54(5), 784-92). To determine whether compounds induce phosphorylated ERK and MEK, cells are plated in a 96-well dish and treated with an 8-point titration of compound for one hour at 37° C. The media is then removed and the cells are incubated with lysis buffer containing protease and phosphatase inhibitors. Phosphorylated ERK and MEK in the resulting lysates is detected using AlphaScreen™ technology. To detect phosphorylated ERK, cell lysates are incubated with streptavidin-coated donor beads, anti-mouse IgG acceptor beads, a biotinylated anti-ERK1/2 rabbit antibody, and a mouse antibody that recognizes ERK1/2 only when it is phosphorylated on Thr202 and Tyr204. The biotinylated ERK1/2 antibody will bind to both the streptavidin-coated donor beads and to ERK1/2 (regardless of its phosphorylation state), and the phospho-ERK1/2 antibody will bind to the acceptor beads and to ERK1/2 that is phosphorylated at Thr202/Tyr204. Excitation of the beads with laser light at 680 nm produces singlet oxygen, which is rapidly quenched unless the beads are in close proximity. When ERK is phosphorylated, both antibodies can bind the same protein, bringing the donor and acceptor beads into close proximity, producing a signal that can be measured at 580 nm. MEK phosphorylation is detected using a similar approach, only with antibodies directed against total MEK1/2 and MEK1/2 that is phosphorylated at Ser217 and Ser221.
as §1

[3] = target: T1, BRAF V600E (Homo sapiens, UniProt P15056, V600E); experiment: BRAF V600E biochemical kinase activity assay (AlphaScreen, biotin-MEK1 substrate); settings: BRAF V600E biochemical inhibitory activity
T1 construct: purchased Upstate Biotechnology
T1 sequence (P15056 whole entry V600E): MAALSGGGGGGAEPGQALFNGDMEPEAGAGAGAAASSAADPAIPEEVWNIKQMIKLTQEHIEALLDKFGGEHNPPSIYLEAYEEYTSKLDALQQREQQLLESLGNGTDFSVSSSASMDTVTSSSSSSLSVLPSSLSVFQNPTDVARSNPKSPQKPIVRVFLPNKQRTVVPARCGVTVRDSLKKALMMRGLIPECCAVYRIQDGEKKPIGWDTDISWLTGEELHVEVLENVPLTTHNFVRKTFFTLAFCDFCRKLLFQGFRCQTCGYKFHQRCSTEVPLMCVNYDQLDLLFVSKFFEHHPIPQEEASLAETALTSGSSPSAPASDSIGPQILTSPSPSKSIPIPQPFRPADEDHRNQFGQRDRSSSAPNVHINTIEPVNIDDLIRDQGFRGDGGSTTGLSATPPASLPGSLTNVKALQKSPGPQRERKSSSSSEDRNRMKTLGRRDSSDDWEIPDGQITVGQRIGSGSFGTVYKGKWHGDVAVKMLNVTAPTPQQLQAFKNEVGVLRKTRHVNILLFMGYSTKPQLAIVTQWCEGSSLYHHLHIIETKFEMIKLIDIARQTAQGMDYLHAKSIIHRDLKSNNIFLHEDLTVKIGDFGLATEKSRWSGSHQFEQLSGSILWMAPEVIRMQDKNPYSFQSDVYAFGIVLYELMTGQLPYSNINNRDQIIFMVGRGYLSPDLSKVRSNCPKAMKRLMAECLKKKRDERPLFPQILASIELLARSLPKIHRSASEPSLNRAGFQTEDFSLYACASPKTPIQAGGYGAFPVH
Description: Compounds to be tested are diluted in dimethyl sulfoxide to a concentration of 0.1 mM. These are serially diluted 15 μL into 30 μL of dimethyl sulfoxide seven times in 96 well plates for a total of 8 dilution points, and for each dilution point 1 μL is added to a well of an assay plate. […] The reaction is started with addition of 10 μL of 200 μM ATP (i.e. final 100 μM ATP). After incubation of the kinase reaction for 45 minutes at room temperature, 5 μL/well of Stop Solution is added (25 mM Hepes pH 7.5, 100 mM EDTA, 0.01% BSA with donor beads (Streptavidin coated beads, Perkin Elmer), acceptor beads (Protein A coated, Perkin Elmer), and anti-phosphor MEK1/2 antibody (CellSignal), each at final concentration 10 μg/mL). The plates are incubated for 3 hours at room temperature and read on Envision reader (Perkin Elmer). Phosphorylation of Mek1 results in binding of the anti-phosphor-MEK1/2antibody and association of the donor and acceptor beads such that signal correlates with kinase activity. The signal versus compound concentration is used to determine the IC50.
The in vitro RAF kinase activities were determined by measuring phosphorylation of a biotinylated substrate peptide as described previously (Tsai, J. et al. Proc Natl Acad Sci USA 105, 3041-3046 (2008)). Compounds of formula (I), e.g., compound A, was also tested against a panel of 287 kinases at concentrations of 1 μM in duplicate. Kinases inhibited by over 50% were followed up by IC50 determination. The 287 kinases represent all major branches of the kinome phylogenetic tree. The inhibition screen of 287 kinases was carried out under contract as complementary panels at Invitrogen (Life Technologies, Wis., USA) SelectScreen™ profiling service, DiscoverX (CA, USA) KINOMEScan™ service, and Reaction Biology Corporation (PA, USA) Kinase HotSpot℠ service.

[4] = tested on: IPC-298 (NRAS Q61L) cell line; experiment: IPC-298 P-ERK cell activation assay (AlphaScreen); assay type: cell-based, human; settings: Homo sapiens; P-ERK cell activation, IPC-298; numeric bounds; read-out: Cell activity (EC50 μM) IPC-298_P-ERK
Description: as §2, §1

SMILES | IC50 [1] [µM] | EC50 [2] [µM] | IC50 [3] [µM] | EC50 [4] [µM]
COc1ccnc2[nH]cc(C(=O)c3c(F)ccc(NS(=O)(=O)C(C)C)c3F)c12 [Compound P-2001, N-[2,4-difluoro-3-(4-methoxy-1H-pyrrolo[2,3-b]pyridine-3-carbonyl)phenyl]propane-2-sulfonamide] | > 10 | > 10 | 0.0001 to 1 | > 10
COc1ccnc2[nH]cc(C(=O)c3c(F)ccc(NS(=O)(=O)N(C)C)c3F)c12 [Compound P-2002, 3-[3-(dimethylsulfamoylamino)-2,6-difluoro-benzoyl]-4-methoxy-1H-pyrrolo[2,3-b]pyridine] | 0.0001 to 1 | > 10 | 0.0001 to 1 | > 10
COc1ccnc2[nH]cc(C(=O)c3c(F)ccc(NS(=O)(=O)N4CCCC4)c3F)c12 [Compound P-2003, N-[2,4-difluoro-3-(4-methoxy-1H-pyrrolo[2,3-b]pyridine-3-carbonyl)phenyl]pyrrolidine-1-sulfonamide] | 0.0001 to 1 | > 10 | 0.0001 to 1 | > 10
CCN(CC)S(=O)(=O)Nc1ccc(F)c(C(=O)c2c[nH]c3nccc(OC)c23)c1F [Compound P-2004, 3-[3-(diethylsulfamoylamino)-2,6-difluoro-benzoyl]-4-methoxy-1H-pyrrolo[2,3-b]pyridine] | > 10 | > 10 | 1 to 10 | > 10
COc1ccnc2[nH]cc(C(=O)c3c(F)ccc(NS(=O)(=O)C4CCCCC4)c3F)c12 [Compound P-2005, N-[2,4-difluoro-3-(4-methoxy-1H-pyrrolo[2,3-b]pyridine-3-carbonyl)phenyl]cyclohexanesulfonamide] | 1 to 10 | > 10 | 0.0001 to 1 | > 10
CCC(C)S(=O)(=O)Nc1ccc(F)c(C(=O)c2c[nH]c3nccc(OC)c23)c1F (stereo not drawn) [Compound P-2006, N-[2,4-difluoro-3-(4-methoxy-1H-pyrrolo[2,3-b]pyridine-3-carbonyl)phenyl]butane-2-sulfonamide] | 0.0001 to 1 | > 10 | 0.0001 to 1 | > 10
CN(C)S(=O)(=O)Nc1ccc(F)c(C(=O)c2c[nH]c3nccc(Cl)c23)c1F [Compound P-2007, 4-chloro-3-[3-(dimethylsulfamoylamino)-2,6-difluoro-benzoyl]-1H-pyrrolo[2,3-b]pyridine] | 0.0001 to 1 | > 10 | 0.0001 to 1 | > 10
O=C(c1c(F)ccc(NS(=O)(=O)C2CCC2)c1F)c1c[nH]c2nccc(Cl)c12 [Compound P-2008, N-[3-(4-chloro-1H-pyrrolo[2,3-b]pyridine-3-carbonyl)-2,4-difluoro-phenyl]cyclobutanesulfonamide] | 0.0001 to 1 | > 10 | 0.0001 to 1 | > 10
CCCC(C)S(=O)(=O)Nc1ccc(F)c(C(=O)c2c[nH]c3nccc(OC)c23)c1F (stereo not drawn) [Compound P-2009, N-[2,4-difluoro-3-(4-methoxy-1H-pyrrolo[2,3-b]pyridine-3-carbonyl)phenyl]pentane-2-sulfonamide] | 1 to 10 | > 10 | 0.0001 to 1 | > 10
COc1ccnc2[nH]cc(C(=O)c3c(F)ccc(NS(=O)(=O)C4CCC4)c3F)c12 [Compound P-2010, N-[2,4-difluoro-3-(4-methoxy-1H-pyrrolo[2,3-b]pyridine-3-carbonyl)phenyl]cyclobutanesulfonamide] | 1 to 10 | > 10 | 0.0001 to 1 | > 10
CCN(CC)S(=O)(=O)Nc1ccc(F)c(C(=O)c2c[nH]c3nccc(Cl)c23)c1F [Compound P-2011, 4-chloro-3-[3-(diethylsulfamoylamino)-2,6-difluoro-benzoyl]-1H-pyrrolo[2,3-b]pyridine] | 1 to 10 | > 10 | 0.0001 to 1 | > 10
CCN(CC)S(=O)(=O)Nc1ccc(F)c(C(=O)c2c[nH]c3nccc(C#N)c23)c1F [P-2012, 4-cyano-3-[3-(diethylsulfamoylamino)-2,6-difluoro-benzoyl]-1H-pyrrolo[2,3-b]pyridine] | 1 to 10 | > 10 | 0.0001 to 1 | > 10
O=C(c1c(F)ccc(NS(=O)(=O)C2CCCCC2)c1F)c1c[nH]c2nccc(Cl)c12 [P-2014, N-[3-(4-chloro-1H-pyrrolo[2,3-b]pyridine-3-carbonyl)-2,4-difluoro-phenyl]cyclohexanesulfonamide] | 0.0001 to 1 | > 10 | 0.0001 to 1 | > 10
O=C(c1c(F)ccc(NS(=O)(=O)C2CCCC2)c1F)c1c[nH]c2nccc(Cl)c12 [P-2015, N-[3-(4-chloro-1H-pyrrolo[2,3-b]pyridine-3-carbonyl)-2,4-difluoro-phenyl]cyclopentanesulfonamide] | > 10 | > 10 | 0.0001 to 1 | > 10
CCC(C)S(=O)(=O)Nc1ccc(F)c(C(=O)c2c[nH]c3nccc(Cl)c23)c1F (stereo not drawn) [P-2016, N-[3-(4-chloro-1H-pyrrolo[2,3-b]pyridine-3-carbonyl)-2,4-difluoro-phenyl]butane-2-sulfonamide] | 0.0001 to 1 | > 10 | 0.0001 to 1 | > 10
CC(C)S(=O)(=O)Nc1ccc(F)c(C(=O)c2c[nH]c3nccc(C#N)c23)c1F [P-2017, N-[3-(4-cyano-1H-pyrrolo[2,3-b]pyridine-3-carbonyl)-2,4-difluoro-phenyl]propane-2-sulfonamide] | 0.0001 to 1 | > 10 | 0.0001 to 1 | > 10
N#Cc1ccnc2[nH]cc(C(=O)c3c(F)ccc(NS(=O)(=O)C4CCCCC4)c3F)c12 [P-2018, N-[3-(4-cyano-1H-pyrrolo[2,3-b]pyridine-3-carbonyl)-2,4-difluoro-phenyl]cyclohexanesulfonamide] | > 10 | > 10 | 0.0001 to 1 | > 10
N#Cc1ccnc2[nH]cc(C(=O)c3c(F)ccc(NS(=O)(=O)N4CCCC4)c3F)c12 [P-2019, N-[3-(4-cyano-1H-pyrrolo[2,3-b]pyridine-3-carbonyl)-2,4-difluoro-phenyl]pyrrolidine-1-sulfonamide] | 0.0001 to 1 | > 10 | 0.0001 to 1 | > 10
Cc1cc(NS(=O)(=O)N2CCCC2)c(F)c(C(=O)c2c[nH]c3ncc(-c4cnc(C5CC5)nc4)cc23)c1 [P-2183, N-[3-[5-(2-cyclopropylpyrimidin-5-yl)-1H-pyrrolo[2,3-b]pyridine-3-carbonyl]-2-fluoro-5-methyl-phenyl]pyrrolidine-1-sulfonamide] | – | > 10 | 0.0001 to 1 | > 10
